According to patent US20070142456A1, “Method for inhibiting cancer development by fatty acid synthase inhibitors” (FASgen, LLC, priority 2002, published 2007):

Assays:
[1] = system: fatty acid synthesis in NT5 cancer cells; test: Inhibition of fatty acid synthesis: [14C]acetate incorporation into total lipids in NT5 cells; type: cell-based, mouse; settings: 4 h treatment, [14C]acetate during last 2 h, FIG. 1
Method: (See FIG. 1). 5×10^4 NT5 cells were plated in 24-well plates. Following overnight attachment, cells were treated with cerulenin and C75 diluted in DMSO at 5 mg/ml for 4 h, with control cells receiving vehicle alone. During the last 2 h of drug treatment, cells were treated with 1 μCi [^14C]acetate. Total lipids were then extracted and counted. Statistical analysis (i.e., two tailed t-tests) of the results are as follows: Control-C75 5 μg/ml, p=0.116; Control-C75 10 μg/ml, p=0.018; Control-Cerulenin 5 μg/ml, p=0.002; Control-Cerulenin 10 μg/ml, p=0.002.
NT cell lines are established from tumors that developed in transgenic mice (Reilly, R., Gottlieb, M., Ercolini, A., Machiels, J., Kane, C., Okoye, F., Muller, W., Dixon, K., and Jaffee, E., “HER-2neu Is a Tumor Rejection Target in Tolerized HER-2/neu Transgenic Mice,” Cancer Research, 60: 3569-3576, 2000; Reilly, R., Machiels, J., Emens, L., Ercolini, A., Okoye, F., Lei, R., Weintraub, D., and Jaffee, E., “The Collaboration of Both Humoral and Cellular HER-2/neu-targeted Immune Responses Is Required for the Complete Eradication of HER-2/neu-expressing Tumors,” Cancer Research, 61: 880-883, 2001), and provide an in vitro model for testing the FAS inhibitors C75 and cerulenin.

NT5 cancer cells = test: Inhibition of NT5 cancer cell growth in vitro (crystal violet, O.D. 490 nm); type: cell-based, mouse; settings: 72 hours, FIG. 2
Method: (See FIG. 2). 1×10^4 cells were plated in 24-well plates. Following overnight attachment, cells were treated with C75 or cerulenin diluted in DMSO at 5 mg/ml, with control cells receiving vehicle alone. After 72 hours, cells were stained with crystal violet (0.2% in 10% methanol), solubilized in 1% SDS, and the O.D. measured at 490 nm. Two-tailed t-test: Control-C75 5 μg/ml, p=0.0003; Control-C75 10 μg/ml, p<0.0001; Control-Cerulenin 5 μg/ml, p<0.0001; Control-Cerulenin 10 μg/ml, p<0.0001.

[2] = system: mammary glands of neu-N transgenic mice; test: Mechanism of action: mammary gland whole mounts and immunohistochemistry in neu-N transgenic mice; type: in vivo, mouse; settings: 30 mg/kg ip weekly
Method: (§1) Fifteen 8-10 week old, neu-N transgenic mice were treated intraperitoneally (ip) with C75 at 30 mg/kg weekly, along with fifteen vehicle controls (RPMI). Three mice from the treatment and control groups were sacrificed by carbon dioxide asphyxiation at two-week intervals beginning at week two (two weeks after the first C75 treatment at 8-10 weeks of age). All animals were injected with 1 mg of BrdU two hours prior to sacrifice. Entire inguinal mammary glands were removed along with the intramammary lymph node that was grossly identifiable. Additionally, kidneys, liver and skin samples were collected from each animal. The […] from one side and the kidneys, liver and skin samples were fixed in neutral-buffered formalin, the other was fixed in Carnoy's fixative for whole-mount preparation. In addition, mammary glands from a non-transgenic age-matched FVB/N control mouse were removed for similar analysis at week 10 (age 18-20 weeks).
Following fixation in 10% neutral-buffered formalin for 24 hours, the mammary glands were embedded in paraffin. Six 4 micron slides were prepared from each tissue block, with the first slide stained with hematoxylin and eosin. The remaining unstained sections were utilized for immunohistochemical analysis of the preneoplastic lesions and surrounding breast tissue with the following antibodies: FAS, BrdU and p21/Waf-1 (Dako, Carpinteria, Calif.), Akt and Phospho-Akt (Cell Signaling Technology, Beverly, Mass.), and neu (Santa Cruz Biotechnology, Inc., Santa Cruz, Calif.) apoptosis (ApopTag Peroxidase In Situ Oligo Ligation Kit, Serologicals Corporation, Temecula, Calif.). Staining was assessed by counting the number of positive cells per 500 total cells in the ductal and lobular structures at 400×. Statistical analysis was performed using t-tests on Prism 3 software. The Carnoy's fixed tissue was stained with carmine red as described and whole-mounted on glass slides.

[3] = system: NT5 cancer cell allografts; test: Growth of NT5 cancer cell allografts in FVB/N mice; type: in vivo; settings: 30 mg/kg intraperitoneal every six days, FIG. 3
Method: (See FIG. 3). Fourteen animals received 0.1 ml packed cultured NT5 cells in the flank. When measurable tumors appeared, seven animals were treated with C75 (30 mg/kg in 0.1 ml RPMI, intraperitoneal injection) every six days and seven animals received vehicle control. Error bars in FIG. 3 represent standard error of the mean.

[4] = system: HER-2/neu breast cancer transgenic mice; test: Inhibition of cancer development in HER-2/neu breast cancer transgenic mouse model; type: in vivo
Excerpt: Derived from the FVB/N strain, neu-N transgenic mice express the non-transforming rat neu cDNA under the control of a mammary-specific promoter. As a consequence, the mice develop spontaneous mammary adenocarcinomas beginning at approximately 125 days, with nearly all of the mice harboring tumors by 300 days (Guy, C., Webster, M., Schaller, M., Parsons, T., Cardiff, R., and Muller, W., “Expression of the neu protooncogene in the mammary epithelium of transgenic mice induces metastatic disease,” Proc. Natl. Acad. Sci. USA, 89: 10578-10582, 1992). […] Although the activated neu model has the advantage of more rapid tumor development (Guy, C., Cardiff, R., and Muller, W., “Activated neu induces rapid tumor progression,” Journal of Biological Chemistry, 271: 7673-7678, 1996), this point mutation has not been identified in human breast cancer (Lofts, F. and Gullick, W., “C-erbB2 amplification and overexpression in human tumors,” Cancer Treat. Res., 61: 161-179, 1992). Thus, the HER-2/neu breast cancer transgenic mouse model more closely resembles human disease where neu is overexpressed, not mutated.
(See FIG. 4) Thirty HER-2/neu breast cancer transgenic mice were used for the study. Fifteen (15) mice received weekly doses of C75 (30 mg/kg in 0.1 ml RPMI) for three months beginning at 5 weeks of age and 15 mice received vehicle alone. Mice were observed daily and the first appearance of breast tumors were recorded. Two (2) mice in the controls and 6 in the treated group died during the study. […] Fifty-percent (50%) of the control mice developed tumors after approximately 200 days versus 300 days for the C75 treated animals. Moreover, three treated animals remained tumor free for nearly 18 months, the duration of their lives.

[5] = system: mammary glands of FVB/N mice; test: Mammary gland development in non-transgenic FVB/N control mice treated with C75; type: in vivo; settings: FVB/N animals, FIG. 9
Method: as §1

[6] = immunohistochemistry, versus controls and FVB/N mice
[7] = mammary tissue, versus controls and FVB/N mice
[8] = 30 mg/kg weekly for three months beginning at 5 weeks of age

Structure (SMILES) | inhibition of fatty acid synthesis in NT5 cells [1] | growth of NT5 cancer cells (O.D. 490 nm) (NT5 cancer cells) | tissue restriction of the effects (other normal duct structures in skin, liver or kidney) [2] | number of mammary duct structures, their thickness and number of budding epithelial structures ([2]; following 8-10 weeks of treatment, versus vehicle controls and FVB/N animals) | Akt expression [2, 6] | FAS expression [2, 6] | Phospho-Akt expression [2, 6] | neu expression [2, 6] | p21/Waf1 expression [2, 6] | DNA synthesis (BrdU) [2, 7] | apoptotic changes [2, 7] | growth of NT5 tumor cell allografts [3] | time after which 50% of the mice developed tumors [4, 8] | tumor development (log-rank analysis) [4, 8] | time three treated animals remained tumor free (duration of their lives) ([4]; 30 mg/kg weekly for three months, three of 15 treated animals) | development of cancer ([4]; HER-2/neu transgenic mice, FIG. 4) | time three animals remained tumor free (duration of their lives) ([4]; as restated in the description) | mice that died during the study ([4]; treated group of 15 mice, 30 mg/kg weekly, 2 died in controls) | morphological difference in mammary structures, C75 treated versus controls [5]
C/C=C/C/C=C/CCC(=O)[C@H]1O[C@H]1C(N)=O [cerulenin, 2,3-epoxy-4-oxo-7,10-dodecadienoylamide, reference compound] | inhibit fatty acid synthesis in NT5 cells at levels similar to previous studies with human cell lines | significantly reduced the growth of the cancer cells | – | – | – | – | – | – | – | – | – | – | – | – | – | – | – | – | –
C=C1C(=O)OC(CCCCCCCC)C1C(=O)O (stereo not drawn) [C75, tetrahydro-3-methylene-2-oxo-5-n-octyl-4-furancarboxylic acid] | inhibit fatty acid synthesis in NT5 cells at levels similar to previous studies with human cell lines | significantly reduced the growth of the cancer cells | restricted to the breast epithelial cells that overexpress neu | significant reduction | decreased | decreased | decreased | decreased | decreased | decreased | increased | significantly reduced the growth | ~300 days | significantly delayed | ~18 months | significantly inhibited the development of cancer | ~1.5 years | 6 mice | no significant morphological difference
